# According to patent US10167262B2, “Herbicidal substituted 3-arylpyrazoles” (FMC CORPORATION, priority 2014, dated 2019):
# Tested on: large (Lg) crabgrass (Digitaria sanguinalis)
# Assay: Test C pre-/postemergence greenhouse test, plant response rating 0-100
# Format: in vivo
# Conditions: Postemergence, 31 g ai/ha
# Outline: (§1)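 Scores run from 0, no effect, to 100, complete control, assigned by eye after treated plants and controls spent 13 to 15 days in a greenhouse. Soil-applied treatment went onto freshly sown seed in loam and sand; foliar treatment hit seedlings at the 1- to 4-leaf stage.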
row,SMILES,"Plant response rating (0 to 100), Crabgrass, Large"
1,Fc1ccccc1NN=C(c1ccccc1)c1c[nH]nc1-c1cc(Cl)cc(Cl)c1 [Compound 57],0

# Same assay, conditions: Postemergence, 62 g ai/ha
row,SMILES,"Plant response rating (0 to 100), Crabgrass, Large"
1,Fc1ccccc1NN=C(c1ccccc1)c1c[nH]nc1-c1cc(Cl)cc(Cl)c1 [Compound 57],0

# Same assay, conditions: Postemergence, 125 g ai/ha
row,SMILES,"Plant response rating (0 to 100), Crabgrass, Large"
1,Fc1ccccc1NN=C(c1ccccc1)c1c[nH]nc1-c1cc(Cl)cc(Cl)c1 [Compound 57],0

# Same assay, conditions: Postemergence, 250 g ai/ha; scale 0 to 100
row,SMILES,"Plant response rating, Crabgrass, Large"
1,Fc1ccccc1NN=C(c1ccccc1)c1c[nH]nc1-c1cc(Cl)cc(Cl)c1 [Compound 57],5

# Tested on: soybean (Glycine max)
# Assay: as above
# Format: in vivo
# Conditions: Postemergence, 62 g ai/ha
# Outline: as §1
row,SMILES,"Plant response rating (0 to 100), Soybean"
1,Fc1ccccc1NN=C(c1ccccc1)c1c[nH]nc1-c1cc(Cl)cc(Cl)c1 [Compound 57],0

# Same assay, conditions: Postemergence, 125 g ai/ha
row,SMILES,"Plant response rating (0 to 100), Soybean"
1,Fc1ccccc1NN=C(c1ccccc1)c1c[nH]nc1-c1cc(Cl)cc(Cl)c1 [Compound 57],0

# Same assay, conditions: Postemergence, 250 g ai/ha; scale 0 to 100
row,SMILES,"Plant response rating, Soybean"
1,Fc1ccccc1NN=C(c1ccccc1)c1c[nH]nc1-c1cc(Cl)cc(Cl)c1 [Compound 57],0

# Tested on: galium (catchweed bedstraw, Galium aparine)
# Assay: as above
# Format: in vivo
# Conditions: Postemergence, 31 g ai/ha
# Outline: as §1
row,SMILES,"Plant response rating (0 to 100), Galium"
1,Fc1ccccc1NN=C(c1ccccc1)c1c[nH]nc1-c1cc(Cl)cc(Cl)c1 [Compound 57],0

# Same assay, conditions: Postemergence, 62 g ai/ha
row,SMILES,"Plant response rating (0 to 100), Galium"
1,Fc1ccccc1NN=C(c1ccccc1)c1c[nH]nc1-c1cc(Cl)cc(Cl)c1 [Compound 57],0

# Same assay, conditions: Postemergence, 125 g ai/ha
row,SMILES,"Plant response rating (0 to 100), Galium"
1,Fc1ccccc1NN=C(c1ccccc1)c1c[nH]nc1-c1cc(Cl)cc(Cl)c1 [Compound 57],0

# Same assay, conditions: Postemergence, 250 g ai/ha; scale 0 to 100
row,SMILES,"Plant response rating, Galium"
1,Fc1ccccc1NN=C(c1ccccc1)c1c[nH]nc1-c1cc(Cl)cc(Cl)c1 [Compound 57],0

# Tested on: ragweed (common ragweed, Ambrosia elatior)
# Assay: as above
# Format: in vivo
# Conditions: Postemergence, 62 g ai/ha
# Outline: as §1
row,SMILES,"Plant response rating (0 to 100), Ragweed"
1,Fc1ccccc1NN=C(c1ccccc1)c1c[nH]nc1-c1cc(Cl)cc(Cl)c1 [Compound 57],15

# Same assay, conditions: Postemergence, 125 g ai/ha
row,SMILES,"Plant response rating (0 to 100), Ragweed"
1,Fc1ccccc1NN=C(c1ccccc1)c1c[nH]nc1-c1cc(Cl)cc(Cl)c1 [Compound 57],65

# Same assay, conditions: Postemergence, 250 g ai/ha; scale 0 to 100
row,SMILES,"Plant response rating, Ragweed"
1,Fc1ccccc1NN=C(c1ccccc1)c1c[nH]nc1-c1cc(Cl)cc(Cl)c1 [Compound 57],70

# Tested on: lambsquarters (Chenopodium album)
# Assay: as above
# Format: in vivo
# Conditions: Postemergence, 62 g ai/ha
# Outline: as §1
row,SMILES,"Plant response rating (0 to 100), Lambsquarters"
1,Fc1ccccc1NN=C(c1ccccc1)c1c[nH]nc1-c1cc(Cl)cc(Cl)c1 [Compound 57],60

# Same assay, conditions: Postemergence, 125 g ai/ha
row,SMILES,"Plant response rating (0 to 100), Lambsquarters"
1,Fc1ccccc1NN=C(c1ccccc1)c1c[nH]nc1-c1cc(Cl)cc(Cl)c1 [Compound 57],100

# Tested on: velvetleaf (Abutilon theophrasti)
# Assay: as above
# Format: in vivo
# Conditions: Postemergence, 62 g ai/ha
# Outline: as §1
row,SMILES,"Plant response rating (0 to 100), Velvetleaf"
1,Fc1ccccc1NN=C(c1ccccc1)c1c[nH]nc1-c1cc(Cl)cc(Cl)c1 [Compound 57],70

# Same assay, conditions: Postemergence, 125 g ai/ha
row,SMILES,"Plant response rating (0 to 100), Velvetleaf"
1,Fc1ccccc1NN=C(c1ccccc1)c1c[nH]nc1-c1cc(Cl)cc(Cl)c1 [Compound 57],80

# Same assay, conditions: Postemergence, 250 g ai/ha; scale 0 to 100
row,SMILES,"Plant response rating, Velvetleaf"
1,Fc1ccccc1NN=C(c1ccccc1)c1c[nH]nc1-c1cc(Cl)cc(Cl)c1 [Compound 57],80

# Tested on: blackgrass (Alopecurus myosuroides)
# Assay: as above
# Format: in vivo
# Conditions: Postemergence, 31 g ai/ha
# Outline: as §1
row,SMILES,"Plant response rating (0 to 100), Blackgrass"
1,Fc1ccccc1NN=C(c1ccccc1)c1c[nH]nc1-c1cc(Cl)cc(Cl)c1 [Compound 57],0

# Same assay, conditions: Postemergence, 62 g ai/ha
row,SMILES,"Plant response rating (0 to 100), Blackgrass"
1,Fc1ccccc1NN=C(c1ccccc1)c1c[nH]nc1-c1cc(Cl)cc(Cl)c1 [Compound 57],0

# Same assay, conditions: Postemergence, 125 g ai/ha
row,SMILES,"Plant response rating (0 to 100), Blackgrass"
1,Fc1ccccc1NN=C(c1ccccc1)c1c[nH]nc1-c1cc(Cl)cc(Cl)c1 [Compound 57],0

# Same assay, conditions: Postemergence, 250 g ai/ha; scale 0 to 100
row,SMILES,"Plant response rating, Blackgrass"
1,Fc1ccccc1NN=C(c1ccccc1)c1c[nH]nc1-c1cc(Cl)cc(Cl)c1 [Compound 57],0

# Tested on: yellow nutsedge (Cyperus esculentus)
# Assay: as above
# Format: in vivo
# Conditions: Postemergence, 62 g ai/ha
# Outline: as §1
row,SMILES,"Plant response rating (0 to 100), Nutsedge, Yellow"
1,Fc1ccccc1NN=C(c1ccccc1)c1c[nH]nc1-c1cc(Cl)cc(Cl)c1 [Compound 57],0

# Same assay, conditions: Postemergence, 125 g ai/ha
row,SMILES,"Plant response rating (0 to 100), Nutsedge, Yellow"
1,Fc1ccccc1NN=C(c1ccccc1)c1c[nH]nc1-c1cc(Cl)cc(Cl)c1 [Compound 57],0

# Same assay, conditions: Postemergence, 250 g ai/ha; scale 0 to 100
row,SMILES,"Plant response rating, Nutsedge, Yellow"
1,Fc1ccccc1NN=C(c1ccccc1)c1c[nH]nc1-c1cc(Cl)cc(Cl)c1 [Compound 57],5

# Tested on: pigweed (Amaranthus retroflexus)
# Assay: as above
# Format: in vivo
# Conditions: Postemergence, 62 g ai/ha
# Outline: as §1
row,SMILES,"Plant response rating (0 to 100), Pigweed"
1,Fc1ccccc1NN=C(c1ccccc1)c1c[nH]nc1-c1cc(Cl)cc(Cl)c1 [Compound 57],70

# Same assay, conditions: Postemergence, 250 g ai/ha; scale 0 to 100
row,SMILES,"Plant response rating, Pigweed"
1,Fc1ccccc1NN=C(c1ccccc1)c1c[nH]nc1-c1cc(Cl)cc(Cl)c1 [Compound 57],75

# Tested on: Italian ryegrass (Lolium multiflorum)
# Assay: as above
# Format: in vivo
# Conditions: Postemergence, 62 g ai/ha
# Outline: as §1
row,SMILES,"Plant response rating (0 to 100), Ryegrass, Italian"
1,Fc1ccccc1NN=C(c1ccccc1)c1c[nH]nc1-c1cc(Cl)cc(Cl)c1 [Compound 57],0

# Same assay, conditions: Postemergence, 125 g ai/ha
row,SMILES,"Plant response rating (0 to 100), Ryegrass, Italian"
1,Fc1ccccc1NN=C(c1ccccc1)c1c[nH]nc1-c1cc(Cl)cc(Cl)c1 [Compound 57],0

# Same assay, conditions: Postemergence, 250 g ai/ha; scale 0 to 100
row,SMILES,"Plant response rating, Ryegrass, Italian"
1,Fc1ccccc1NN=C(c1ccccc1)c1c[nH]nc1-c1cc(Cl)cc(Cl)c1 [Compound 57],0

# Tested on: corn (Zea mays)
# Assay: as above
# Format: in vivo
# Conditions: Postemergence, 31 g ai/ha
# Outline: as §1
row,SMILES,"Plant response rating (0 to 100), Corn"
1,Fc1ccccc1NN=C(c1ccccc1)c1c[nH]nc1-c1cc(Cl)cc(Cl)c1 [Compound 57],0

# Same assay, conditions: Postemergence, 62 g ai/ha
row,SMILES,"Plant response rating (0 to 100), Corn"
1,Fc1ccccc1NN=C(c1ccccc1)c1c[nH]nc1-c1cc(Cl)cc(Cl)c1 [Compound 57],0

# Same assay, conditions: Postemergence, 125 g ai/ha
row,SMILES,"Plant response rating (0 to 100), Corn"
1,Fc1ccccc1NN=C(c1ccccc1)c1c[nH]nc1-c1cc(Cl)cc(Cl)c1 [Compound 57],0

# Same assay, conditions: Postemergence, 250 g ai/ha; scale 0 to 100
row,SMILES,"Plant response rating, Corn"
1,Fc1ccccc1NN=C(c1ccccc1)c1c[nH]nc1-c1cc(Cl)cc(Cl)c1 [Compound 57],0

# Tested on: goosegrass (Eleusine indica)
# Assay: Test C postemergence greenhouse test, plant response rating 0-100
# Format: in vivo
# Conditions: 31 g ai/ha
# Outline: (§2)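 First, plants were raised in a sphagnum peat, vermiculite and nutrient medium to 1–4 leaves. Next, formulated test compounds were applied over the foliage. Finally, after 13–15 greenhouse days, injury was compared with controls and scored 0–100.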
row,SMILES,"Plant response rating (0 to 100), Goosegrass"
1,Fc1ccccc1NN=C(c1ccccc1)c1c[nH]nc1-c1cc(Cl)cc(Cl)c1 [Compound 57],0

# Same assay, conditions: 62 g ai/ha
row,SMILES,"Plant response rating (0 to 100), Goosegrass"
1,Fc1ccccc1NN=C(c1ccccc1)c1c[nH]nc1-c1cc(Cl)cc(Cl)c1 [Compound 57],0

# Same assay, conditions: 125 g ai/ha
row,SMILES,"Plant response rating (0 to 100), Goosegrass"
1,Fc1ccccc1NN=C(c1ccccc1)c1c[nH]nc1-c1cc(Cl)cc(Cl)c1 [Compound 57],0

# Same assay, conditions: 250 g ai/ha, scale 0 to 100
row,SMILES,"Plant response rating, Goosegrass"
1,Fc1ccccc1NN=C(c1ccccc1)c1c[nH]nc1-c1cc(Cl)cc(Cl)c1 [Compound 57],0

# Tested on: bermudagrass (Cynodon dactylon)
# Assay: as above
# Format: in vivo
# Conditions: 31 g ai/ha
# Outline: as §2
row,SMILES,"Plant response rating (0 to 100), Bermudagrass"
1,Fc1ccccc1NN=C(c1ccccc1)c1c[nH]nc1-c1cc(Cl)cc(Cl)c1 [Compound 57],0

# Same assay, conditions: 62 g ai/ha
row,SMILES,"Plant response rating (0 to 100), Bermudagrass"
1,Fc1ccccc1NN=C(c1ccccc1)c1c[nH]nc1-c1cc(Cl)cc(Cl)c1 [Compound 57],0

# Same assay, conditions: 125 g ai/ha
row,SMILES,"Plant response rating (0 to 100), Bermudagrass"
1,Fc1ccccc1NN=C(c1ccccc1)c1c[nH]nc1-c1cc(Cl)cc(Cl)c1 [Compound 57],0

# Same assay, conditions: 250 g ai/ha, scale 0 to 100
row,SMILES,"Plant response rating, Bermudagrass"
1,Fc1ccccc1NN=C(c1ccccc1)c1c[nH]nc1-c1cc(Cl)cc(Cl)c1 [Compound 57],5
